Measured values as given in patent publication US9156815B2, “Salt of (R)-3-(6-amino-pyridin-3-yl)-2-(1-Cyclohexyl-1H-imidazol-4-yl) ethyl propionate” (Sanofi, priority 2011, dated 2015).
Where a name gives a salt, the structure may show the parent alone.

Assays:
Format in all cases: physicochemical
[1] = Salt screening of the API with acids and solvents, XRPD measurement; set-up: key: NKP means no crystalline phase; KFA means free acid crystallizes; settings: API + acid
Procedure: The molar ratio between the H^+ concentration of the acid and of the API is 2 (for details see table 2). In each cavity of the microtiter plate, 68 microliters of the dissolved API are mixed with 40 microliters of the 0.1 normal acid solutions.
68 microliters of the dissolved API are pipetted into each cavity of a 96 microtiter plate. Then, in each case 40 microliters of the acids dissolved as in table 2 are added according to the scheme as detailed in table 3. The microtiter plate is shaken at room temperature for 20 min so that an equilibrium is formed in the cavities. Evaporation of the solvents at room temperature in a stream of nitrogen for 2 hours. Then, in each case 40 microliters of the solvents according to the scheme as detailed in table 3 are added. The microtiter plate is shaken at room temperature for 20 min so that an equilibrium is formed in the cavities. Evaporation of the solvent then takes place at room temperature in a stream of nitrogen for 2 hours. Finally, XRPD measurement is carried out.

[2] = Physical stability, storage for 14 days (XRPD, thermogravimetry); settings: stored 14 days under conditions (A) to (D)
Procedure: Representative samples of the crystalline salt of (R)-3-(6-aminopyridin-3-yl)-2-(1-cyclohexyl-1H-imidazol-4-yl)propionic acid ethyl ester with naphthalene-1,5-disulfonic acid prepared as in example 1 are stored for 14 days under the conditions (A), (B), (C) and (D): • (A) 50° C. • (B) 50° C. and 80% relative atmospheric humidity • (C) 80° C. • (D) 80° C. and 80% relative atmospheric humidity Results:
Only a slight loss in mass during the thermogravimetric measurements (apparatus TA Instruments: TGA Q500, atmospheric nitrogen; rate 10° C./min) is observed, which is attributed to the release of water from the crystals.

[3] = Chiral stability, storage for 14 days (chiral HPLC)
Procedure: Representative samples of the crystalline salt of (R)-3-(6-aminopyridin-3-yl)-2-(1-cyclohexyl-1H-imidazol-4-yl)propionic acid ethyl ester with naphthalene-1,5-disulfonic acid prepared as in example 1 are stored for 14 days under the conditions (A), (B), (C) and (D) described in example 4:
The measurements were carried out using chromatography on chiral phase as described in example 1.
Chiral HPLC: (Chiralcel OD-H/84 (250×4.6 mm), heptane:Isopropanol:Acetonitrile 15:1:0.5+0.1% diethylamine (DEA), 30° C., 1 ml/min): Rt=27.01 min.

| Molecule | XRPD result of salt screening ([1]; solvent 2-Methyl-1-propanol) | XRPD result of salt screening ([1]; solvent 2-Propanol) | XRPD result of salt screening ([1]; solvent Butyl acetate) | XRPD result of salt screening ([1]; solvent Ethanol) | XRPD result of salt screening ([1]; solvent Methanol) | XRPD result of salt screening ([1]; solvent Methyl ethyl ketone) | XRPD result of salt screening ([1]; solvent Water) | XRPD result of salt screening ([1]; solvent Water:methanol 1:1) | XRPD measurements at the start and after 14 days [2] | increase of the (S) enantiomer ([3]; 14 days, 50° C. (A)) [%] | increase of the (S) enantiomer ([3]; 14 days, 50° C. and 80% relative atmospheric humidity (B)) [%] | change of enantiomeric purity ([3]; 14 days, 80° C. (C)) | increase of the (S) enantiomer ([3]; 14 days, 80° C. and 80% relative atmospheric humidity (D)) [%] | Enantiomeric purity ([3]; 14 days, storage condition (A) 50° C.) [%] | Enantiomeric purity ([3]; 14 days, storage condition (B) 50° C. and 80% relative atmospheric humidity) [%] | Enantiomeric purity ([3]; 14 days, storage condition (C) 80° C.) [%] | Enantiomeric purity ([3]; 14 days, storage condition (D) 80° C. and 80% relative atmospheric humidity) [%] | Enantiomeric purity ([3]; at the start of the measurement) [%] |
| --- | --- | --- | --- | --- | --- | --- | --- | --- | --- | --- | --- | --- | --- | --- | --- | --- | --- | --- |
| Fumaric acid | NKP | NKP | NKP | NKP | NKP | NKP | NKP | NKP | – | – | – | – | – | – | – | – | – | – |
| CCOC(=O)[C@H](Cc1ccc(N)nc1)c1cn(C2CCCCC2)cn1 [Example 1, crystalline salt of (R)-3-(6-aminopyridin-3-yl)-2-(1-cyclohexyl-1H-imidazol-4-yl)propionic acid ethyl ester with naphthalene-1,5-disulfonic acid] | – | – | – | – | – | – | – | – | close together | 0.2 | 0.2 | no change | 2.7 | 98.8 | 98.8 | 99.0 | 96.3 | 99.0 |
| Malonic acid | NKP | NKP | NKP | NKP | NKP | NKP | NKP | NKP | – | – | – | – | – | – | – | – | – | – |
| Glucuronic acid | NKP | NKP | NKP | NKP | NKP | NKP | NKP | NKP | – | – | – | – | – | – | – | – | – | – |
| Citric acid | NKP | NKP | NKP | NKP | NKP | NKP | NKP | NKP | – | – | – | – | – | – | – | – | – | – |
| Sulfuric acid | NKP | NKP | NKP | NKP | NKP | NKP | NKP | NKP | – | – | – | – | – | – | – | – | – | – |
| Benzoic acid | KFA | KFA | KFA | KFA | KFA | KFA | KFA | NKP | – | – | – | – | – | – | – | – | – | – |
| Adipic acid | KFA | KFA | KFA | KFA | KFA | KFA | KFA | NKP | – | – | – | – | – | – | – | – | – | – |
| Tartaric acid | NKP | NKP | NKP | NKP | NKP | NKP | NKP | NKP | – | – | – | – | – | – | – | – | – | – |
